Data reported in ChEMBL document CHEMBL5252571, “Substitution to hydrophobic linker and formation of host-guest complex enhanced the effect of synthetic transcription factor made of pyrrole-imidazole polyamide” (Bioorg Med Chem, 2023).
Activity calls are given as the source filed them. The rule behind the calls is not given here.

Columns and labels:
[1] = tested on: GM15850; assay: Induction of FRDA expression in human GM15850 cells derived from Friedreich's ataxia patient assessed as increase in FXN transcription incubated for 24 hrs by RT-PCR analysis; type: functional, cell-based
[2] = tested on: GM15850; assay: Cytotoxicity against human GM15850 cells derived from Friedreich's ataxia patient assessed as decrease in cell viability at >300 nM incubated for 48 hrs by cell count reagent SF based colorimetric assay; type: toxicity; conditions: gm15850, 48 h, 0.3 µM
[3] = tested on: GM15850; assay: Protective activity against human GM15850 cells derived from Friedreich's ataxia patient assessed as decrease in cytotoxicity at 1 uM incubated for 48 hrs in presence of 1 mM 2-hydroxypropyl-beta-cyclodextrin adjuvant by cell count reagent SF based colorimetric assay; type: functional
[4] = tested on: GM15850; assay: Protective activity against human GM15850 cells derived from Friedreich's ataxia patient assessed as decrease in cytotoxicity at 1 uM incubated for 48 hrs in presence of 0.2 to 10 mM 2-hydroxypropyl-beta-cyclodextrin adjuvant by cell count reagent SF based colorimetric assay; type: functional
[5] = tested on: GM15850; assay: Induction of FRDA expression in human GM15850 cells derived from Friedreich's ataxia patient assessed as increase in FXN transcription at 100 to 1000 nM incubated for 24 hrs in presence of 1.0 to 2.5 mM 2-hydroxypropyl-beta-cyclodextrin adjuvant by RT-PCR analysis; type: functional, cell-based; conditions: dose 100-1000 nM
[6] = tested on: GM15850; assay: Induction of FRDA expression in human GM15850 cells derived from Friedreich's ataxia patient assessed as increase in FXN transcription at >300 nM incubated for 24 hrs by RT-PCR analysis; type: functional, cell-based
[7] = Aqueous solubility of compound incubated for 20 mins by HPLC analysis; type: physicochemical; conditions: buffer
[8] = tested on: GM15850; assay: Induction of FRDA expression in human GM15850 cells derived from Friedreich's ataxia patient assessed as increase in FXN transcription at 100 to 300 nM incubated for 24 hrs by RT-PCR analysis; type: functional, cell-based; conditions: dose 100-300 nM

Cc1sc2c(c1C)C(c1ccc(Cl)cc1)=N[C@@H](CC(=O)NCCOCCOCCOCCOCCOCCOCCC(=O)NCCCCCCCNC(=O)CCNC(=O)c1nc(NC(=O)CCNC(=O)c3cc(NC(=O)c4nc(NC(=O)CCNC(=O)c5cc(NC(=O)c6nc(NC(=O)CCCN(C)C)cn6C)cn5C)cn4C)cn3C)cn1C)c1nnc(C)n1-2
Activity [1]: inactive

Cc1sc2c(c1C)C(c1ccc(Cl)cc1)=N[C@@H](CC(=O)NCCOCCOCCOCCOCCOCCOCCC(=O)NCCCCCCCNC(=O)CCNC(=O)c1nc(NC(=O)CCNC(=O)c3cc(NC(=O)c4nc(NC(=O)CCNC(=O)c5cc(NC(=O)c6nccn6C)cn5C)cn4C)cn3C)cn1C)c1nnc(C)n1-2
Activity [2]: Toxic | Activity [3]: Active | Activity [4]: inactive | Activity [5]: inactive | Activity [6]: inactive | solubility [7]: Soluble | Activity [8]: Active

Cc1sc2c(c1C)C(c1ccc(Cl)cc1)=N[C@@H](CC(=O)NCCOCCOCCOCCOCCOCCOCCC(=O)NCCCN(C)CCCNC(=O)CCNC(=O)c1nc(NC(=O)CCNC(=O)c3cc(NC(=O)c4nc(NC(=O)CCNC(=O)c5cc(NC(=O)c6nc(NC(=O)CCCN(C)C)cn6C)cn5C)cn4C)cn3C)cn1C)c1nnc(C)n1-2
Activity [1]: inactive

Cc1sc2c(c1C)C(c1ccc(Cl)cc1)=N[C@@H](CC(=O)NCCOCCOCCOCCOCCOCCOCCC(=O)NCCCN(C)CCCNC(=O)CCNC(=O)c1nc(NC(=O)CCNC(=O)c3cc(NC(=O)c4nc(NC(=O)CCNC(=O)c5cc(NC(=O)c6nccn6C)cn5C)cn4C)cn3C)cn1C)c1nnc(C)n1-2
Activity [1]: Active | solubility [7]: Soluble | Activity [8]: Active
